# According to patent publication EP4444311B1, “GI[…] TREATMENT OF CHRONIC HEPATITIS B VIRUS INFECTIONS” (priority 2021, dated 2023):
# Where two headings read alike, the source gives them in different places.
# Columns and labels:
# [1] = tested on: HepG2.2.15 cells; assay: Cytotoxicity assay (CCK-8 cell viability); type: cell-based, human; conditions: 3.12-100 µM; for HepG2.2.15 cytotoxicity: day 2 and 4 post-first exposure; for cell viabilities: day 6 post-first exposure, unrelated to ginsenoside doses, non-specific decline
# Procedure: HepG2.2.15 cells (seeded at a density of 4 x 10^4 cells per well in 96-well plates) were cultured at 37 °C in humidified air with 5 % CO2. After cells reached 70-80 % confluence, initial screening of ginsenoside library compounds was performed with each compound added to cultured HepG2.2.15 cell at a final concentration of 50 µM. Cells were then further incubated at 37 °C under 5 % CO2. At day 4 post-first exposure of cells to each ginsenoside library compound, percentage cell viabilities were determined by CCK-8 (Dojindo Laboratories, Kumamoto, Japan) used according to manufacturer's instructions. Thereafter, cytotoxicity studies were performed with appropriate quantities of selected ginsenosides (Rg6, Rh4, or Rb3) added to cultured HepG2.2.15 cells at final concentrations of 100, 50, 25, 12.5, 6.25 or 3.12 µM. Cells were then incubated at 37 °C under 5 % CO2. At day 2, 4, and 6 post-first exposure of cells to the selected ginsenosides, percentage cell viabilities were determined by CCK-8 assay as above. Final cytotoxicity studies were performed with combinations of ginsenoside compounds (Rg6, Rh4 or Rb3) (at 80, 40, 20, 10, 5 or 2.5 µM) and LMV (at 0.08, 0.04, 0.02, 0.01, 0.005 or 0.0025 µM) respectively added to cultured HepG2.2.15 cells. Once more, cells were further incubated at 37 °C under 5 % CO2. At day 5 post-first exposure of cells to ginsenoside/LMV combinations, percentage cell viabilities were determined by CCK-8 assay once again.
# [2] = tested on: HBs protein (S-HBs, M-HBs, and L-HBs) mRNA; assay: Knockdown of HBs protein mRNA expression levels in HepG2.2.15 cells (RT-qPCR relative to GAPDH mRNA); type: cell-based, hepatitis B virus; conditions: for IC50: Hepatitis B virus, read-out: Estimated IC50 values (knockdown of HBs protein mRNA expression levels); for knockdown effects on HBs protein mRNA expression levels: day 6 post-first exposure (data not shown); for knockdown HBs protein mRNA expression levels (in words): library screen, 50 µM, day 4 post-first exposure, HepG2.2.15 cells
# Procedure: HepG2.2.15 cells (seeded at a density of 4 x 10^4 cells per well in 96-well plates) were cultured at 37 °C in humidified air with 5 % CO2. Once cells had reached confluence, initial screening of ginsenoside library compounds was performed with each compound added individually to culture media at a final concentration of 50 µM. Cells were then further incubated at 37 °C under 5 % CO2. At day 4 post-first exposure, cells were then collected to determine the percentage knockdowns of HBs protein mRNA expression levels relative to GAPDH mRNA levels (as described below).
# Thereafter, more extensive studies were performed with HepG2.2.15 cells as follows. After cells were grown to confluence, as above, culture media were replaced with media containing one of the selected ginsenosides as appropriate, or else with LMV or ginsenoside/LMV combinations at the indicated concentrations. Cells were then further incubated at 37 °C under 5 % CO2. At the indicated times (at day 2, 4, or 6 post-first exposure; or at just day 5 post-first exposure), cell and culture media samples respectively were collected for subsequent detection of HBs protein mRNA expression levels or secreted HBV DNA and HBsAg levels (as described below).
# RNA extraction from cells was performed using the QIAamp® Viral RNA Mini kit (Qiagen, Germany), according to manufacturer's instructions. RNA integrity was evaluated by electrophoresis on 1% agarose gels, and quantified using a ND1000 spectrophotometer (NanoDrop Technologies, Germany). Following this, extracted RNA (1 µg) was used to synthesize cDNA using a SensiFAST™ cDNA Synthesis Kit (Meridian Bioscience Inc, Cincinnati, OH, USA) according to manufacturer's instructions. RT-qPCR reactions were then performed with qPCR 2xSYBR master mix (Top-Bio, Czech Republic) on a LightCycler® real-time PCR system (Roche, Switzerland), using the indicated primers specific for amplification of HBs protein (S-HBs, M-HBs, and L-HBs) and GAPDH control mRNAs (Table 1). PCR amplification was performed on multiple RT-qPCR reaction mixtures (each 20 µl) located in individual wells of a 96-well optical-grade PCR plate, sealed with optical sealing tape (Bio-Rad Laboratories, Hercules, CA, USA). Each RT-qPCR reaction mixture comprised synthesized cDNA (2 µl) (diluted 1:1), appropriate primers (each 0.4 µl, […]), 2xSYBR green PCR master mix (10 µl) and ddH2O (7.2 µl). PCR amplification involved one cycle at 94 °C (5 min), followed by 40 cycles of denaturation at 94 °C (20 s), then annealing and extension at 57 °C for 20 s, plus 72 °C for 30 s. Finally, melting curve analyses were performed by slowly heating the PCR reaction mixtures from 65 to 95 °C, in increments of 0.5 °C every 5 s, with simultaneous measurements of the SYBR green signal intensities. Percentage knockdowns of HBs protein mRNA expression levels were determined relative to GAPDH mRNA levels using calculated 2^-ΔΔct values [Livak, K.J; Schmittgen, T.D. Analysis of relative gene expression data using real-time quantitative PCR and the 2(-Delta Delta C(T)) Method. Methods 2001, 25, 402-8]. Three biological replicates were performed for each data point where fold change (FC) ≥ 2 is considered statistically significant. Table 1. Primers for RT-qPCR detection of specific mRNAs
SMILES,HepG2.2.15 cytotoxicity [1],cell viabilities [1],"IC50 ([2]; HepG2.2.15, 48 h)","IC50 ([2]; HepG2.2.15, 96 h)",knockdown effects on HBs protein mRNA expression levels [2],knockdown HBs protein mRNA expression levels (in words) [2]
C=C(CCC=C(C)C)[C@H]1CC[C@]2(C)[C@@H]1[C@H](O)C[C@@H]1[C@@]3(C)CC[C@H](O)C(C)(C)[C@@H]3[C@@H](O[C@@H]3O[C@H](CO)[C@@H](O)[C@H](O)[C@H]3O[C@@H]3O[C@@H](C)[C@H](O)[C@@H](O)[C@H]3O)C[C@]12C [Rg6],no significant HepG2.2.15 cytotoxicity,Slightly reduced cell viabilities,5.1 µM,3.2 µM,wear off completely,especially effective
CC(C)=CCC[C@](C)(O[C@@H]1O[C@H](CO[C@@H]2OC[C@@H](O)[C@H](O)[C@H]2O)[C@@H](O)[C@H](O)[C@H]1O)[C@H]1CC[C@]2(C)[C@@H]1[C@H](O)C[C@@H]1[C@@]3(C)CC[C@H](O[C@@H]4O[C@H](CO)[C@@H](O)[C@H](O)[C@H]4O[C@@H]4O[C@H](CO)[C@@H](O)[C@H](O)[C@H]4O)C(C)(C)[C@@H]3CC[C@]12C [Rb3],no significant HepG2.2.15 cytotoxicity,Slightly reduced cell viabilities,4.1 µM,3.2 µM,wear off completely,especially effective
